One series concerns lethally irradiated mice. As to conditions: cited from earlier work.
The test system of series [1] is C57B1/6J mice treated with gamma radiation. Put plainly: Radioprotection of mice by p53 inhibitor PFTα. It counts as in vivo, mouse. As to conditions: I.P. 10 mg/kg.
The test system is the same in series [2]. The settings on record: Komarov et al 1999; cited from earlier work.
The subject of series [3] is NIH Swiss mice treated with cisplatinum. The settings on record: 10 mg/kg, after two weeks, n=11.
For series [4] the test system is unchanged. The settings on record: i.p.; cited from earlier work.
The conditions of series [5]: in vivo; cited from earlier work.
Series [6] relates to NF-κB. Put plainly: EMSA of NF-κB binding activity in HT29 human colon cancer cells. The series is classed as cell-based. The settings on record: fragments 1 mg/ml, 15 min. How it is done: We further minimized the AA′ flagellin fragment by producing additional fragments through stepwise removal of peptide fragments from its N-terminal half (Table 2). […] NF-κB binding activity in HT29 cells was stimulated with TNFa (10 ng/ml), or flagellin fragments (1 mg/ml) for 15 min.
A general note: In EMSA bound probe runs differently from free probe, usually more slowly.

For series [7], the system named is NF-κB. Nature of the series: EMSA of NF-κB translocation / DNA binding in A549 cells. As to conditions: A549 cells, 1 μg/ml, 45 min, EMSA of whole cell extracts.
In series [8] the test system is NF-κB. Put plainly: NF-κB-regulated luciferase reporter assay in H116 human colon cancer cells. It counts as cell-based. From the text: While translocation of NF-κB to the nucleus is a crucial step in induction of NF-κB-regulated inhibitors of apoptosis, it is not sufficient in itself. To directly test the ability of selected fragments to induce expression of NF-κB-regulated genes, we performed reporter assay experiments. Flagellin and the AA′, BB′, A′ and B′ fragments were used for treatment of H116 human colon cancer cells carrying luciferase gene under a NF-κB-responsive promoter. The reporter construct contained three NF-κB-binding sites from the E-selectin promoter combined with a Hsp70 minimal promoter that is routinely used for the detection of NF-κB status of cells. Luciferase activity was measured in cell lysates six hours after addition of flagellin or its truncated fragments into the medium. TNF was used as positive control.
In order to study the ability of the AA′ fragments to directly activate NF-κB-regulated transcription, we performed reporter assay experiments as described above for a wide range of concentrations of flagellin, original AA′ and AA′-derived fragments.
In general terms: A reporter such as luciferase makes a cellular process visible.

The subject of series [9] is mice treated with total body gamma radiation. Put plainly: Mouse survival after total body gamma irradiation (radioprotection). The series is classed as in vivo. As to conditions: s.c. 5.0 μg/mouse (0.2 mg/kg). As to the method:
Whole body irradiation of mice with 15 Gy gamma radiation caused death within 8 days from GI syndrome providing a conventional model of radiation induced damage of GI tract. To test whether flagellin was capable of protecting GI epithelium from IR, we tested the effect of i.v.-injected flagellin on the dynamics of mouse lethality after 15 Gy of radiation. […] Irradiation was done 4 hours post treatment. As expected, control irradiated mice (that received PBS i.v.) died between 5 and 8 days post-treatment. […] Intravenous, intraperitoneal and subcutaneous delivery of 0.2 mg/kg of flagellin followed by 13 Gy irradiation afforded similar degree of protection, leading to 85-90% 30-day survival of mice (data not shown). While not being bound by theory, flagellin may be a radioprotectant due to its activation of NF-κB, which presumably acts as an inhibitor of apoptotic death.
The experiments were done similarly to the above-described ones (FIGS. 14 and 15), however, instead of 15Gy, mice received 10Gy, the dose that caused 100% killing in control group by day 13 (FIG. 6).
In order to further estimate the dependence of radioprotective activity of flagellin on the time of treatment, mice were injected at several time points relative to the moment of gamma-irradiation. Experiments were performed essentially as explained above, using intraperitoneal injection of 5 μg/mouse (0.2 mg/kg) of full-length flagellin or, for control mice, 5 μg/mouse (0.2 mg/kg) of bacterial RNA polymerase. The experiments were performed using the NIH-Swiss mouse strain. […] Only −1 h graph is shown for clarity, however, both timepoints (−1 and −2 h) provide similar degree and dynamics of survival.
We next obtained an estimate of radiation dose-dependent protection for flagellin. As shown above (FIG. 7), treatment with flagellin was sufficient for 100% protection against 10 Gy gamma-irradiation (this dose causes death from hematopoietic syndrome) and 90% 30-day survival at 13 Gy (both hematopoietic and GI syndromes). Experiments were performed as described above, using flagellin 5 μg/mouse (0.2 mg/kg), intraperitoneally injected 1 h before irradiation.
As shown above, full-length flagellin provides protection from both hematopoietic and gastrointestinal syndromes. The radioprotective potential of flagellin fragments was similarly tested after gamma-irradiation with 11 Gy (dose that induces hematopoietic syndrome-associated mortality in mice) or 14 Gy (dose that causes death from GI syndrome). Mice (10 animals per group) were injected subcutaneously with 5.0 μg/mouse (0.2 mg/kg) of flagellin or its fragments, AA′ or BB′, and gamma-irradiated 1 hour later.
In order to explore the limits of radioprotection provided by the AA′ fragment, we irradiated mice with 17 Gy and 20 Gy single doses of total body gamma-radiation.
We tested the ability of AA′ to protect mice that were exposed to it. A group of 20 NIH-Swiss mice were subcutaneously injected with 5 μg/mouse (0.2 mg/kg) of AA′. A second injection of a equal dose of AA′ was administered after 21 (10 mice) and 28 days (another 10 mice), with the time elapsed being sufficient for formation of antibodies. The second injection of AA′ was followed by 13 Gy of whole-body gamma irradiation (1 h post-injection).
Repetitive irradiation within a short period of time may be common, for example, in space radiation events and in clinical radiotherapy regimens. We tested the ability of the AA′ flagellin fragment to protect mice from sub-lethal (4 treatments of 3 Gy) and 100% lethal (4 treatments of 4 Gy) regimens of fractionated gamma-irradiation. Fragment AA′ or saline buffer was given to NIH-Swiss female mice before every irradiation (once a day for 4 days). AA′ was administered as described above for single-dose irradiation (5 μg/mouse, given subcutaneously 1 h before irradiation). […]
We have extensively confirmed that AA′ protects NIH-Swiss and ICR mice from radiation. […]

Read-outs that look alike come from different tables or passages of the source.

Data on ten molecules can be found in patent US8580321B2, “Method for reducing the effects of chemotherapy using flagellin related polypeptides” (priority 2003, dated 2013).

Turning to `C[C@]12CC[C@H]3[C@@H](CC=C4C[C@@H](O)CC[C@@]43C)[C@@H]1CC[C@@H]2O` [5-AED, 5-androstenediol, reference compound], the DMF with lethally irradiated mice (subcutaneous injection in mice 24 h before irradiation) was 1.26.
With `Cc1ccc(C(=O)Cn2c3c(sc2=N)CCCC3)cc1` [PFTα, pifithrin-alpha], in series [1], the “protection from single 9 Gy and fractioned cumulative 12.5 Gy (5×2.5 Gy)” value is “protects”; the “survival after single 12.5 and 25 Gy doses of IR” value is “no effect on survival”. Also, in series [2], the “lethality of wild type animals receiving 6-11 Gy” value was “could be reduced”.
In the case of `N.N.[Cl][Pt][Cl]` [cisplatinum], in series [3], the “mean loss in body weight, cisplatinum alone” value is recorded as roughly 30%. For the same molecule, in series [4], the “maximum tolerable dose [MTD]” value was 10 mg/kg. Further, the beta deterioration in series [5] is 60 min.
On to “AA′n1-163: (1-163)-Linker-(402-505), SEQ ID NO: 34”, for which, in the series with NF-κB [6], the “induction of NF-κB translocation” value was “induce NF-κB translocation” and the “level of NF-κB translocation relative to flagellin” value is on record as “comparable to that of flagellin”. In the series on NF-κB [7], the “NF-κB Stimulation” value is listed as “Yes”.
For “AA′n1-170: (1-170)-Linker-(402-505), SEQ ID NO: 30”, the “level of NF-κB-regulated transcription relative to flagellin” value with NF-κB [8] (reporter assay, over the studied range of concentrations) is on record as “comparable to such of flagellin”. Further, the “NF-κB reporter activity relative to flagellin” value in the series with NF-κB [8] (very low concentration range) is reported as “more active than flagellin”. Moreover, in the series on NF-κB [6], the “induction of NF-κB translocation” value is “induce NF-κB translocation” and the “level of NF-κB translocation relative to flagellin” value is on record as “comparable to that of flagellin”. Further, in the series with NF-κB [7], the “NF-κB Stimulation” value is reported as “Yes”.
“AA′n54-163: (54-163)-Linker-(402-505), SEQ ID NO: 36”: the “induction of NF-κB translocation” value with NF-κB [6] is reported as “induce NF-κB translocation”. Moreover, the “NF-κB Stimulation” value with NF-κB [7] was “Yes”.
As for “AA′n54-170: (54-170)-Linker-(402-505), SEQ ID NO: 32”, in the series with NF-κB [6], the “induction of NF-κB translocation” value is listed as “induce NF-κB translocation” and the “level of NF-κB translocation relative to flagellin” value was “comparable to that of flagellin”. For the same molecule, the “NF-κB Stimulation” value with NF-κB [7] is “Yes”.
Consider “SCF: stem cell factor (SCF, c-kit ligand), hematopoietic cytokine and radioprotectant”, for which the DMF in the series on lethally irradiated mice (lethally irradiated mice) is 1.3-1.35.

B1: BB′: flagellin fragment (56-177)-Linker-(402-450), SEQ ID NO: 14 (protein)
chain: MRGSHHHHHHGMASMTGGQQMGRDLYDDDDKDPFTSNIKGLTQASRNANDGISIAQTTEGALNEINNNLQRVRELSVQATNGTNSDSDLKSIQDEIQQRLEEIDRVSNQTQFNGVKVLSQDNQMKIQVGANDGETITIDLQKIDVKSLGLDGFNVNSPGISGGGGGILDSMGTLINEDAAAAKKSTANPLASIDSALSKVDAVRSSLGAIQNRFDSAITNL
modifications: Salmonella dublin
For B1, in series [9] (1 hour before 11 Gy), the “30-day survival, 11 Gy” value amounted to 0%. Further, the “30-day survival, 14 Gy” value in [9] (1 hour before 14 Gy) is 0%. The “NF-κB Stimulation” value in the series on NF-κB [7] is listed as “No”.

B2: Flt-3 ligand: cytokine conferring radioprotection (protein, UniProt P49771 27-235, looked up)
Fms-related tyrosine kinase 3 …: TQDCSFQHSPISSDFAVKIRELSDYLLQDYPVTVASNLQDEELCGGLWRLVLAQRWMERLKTVAGSKMQGLLERVNTEIHFVTKCAFQPPPSCLRFVQTNISRLLQETSEQLVALKPWITRQNFSRCLELQCQPDSSTLPPPWSPRPLEATAPTAPQPPLLLLLLLPVGLLLLAAAWCLHWQRTRRRTPRPGEQVPPVPSPQDLLLVEH
For B2, the DMF with lethally irradiated mice (lethally irradiated mice) is given as greater than 1.2. Moreover, the “30-day survival at LD100/30” value with lethally irradiated mice (mice) is listed as 70-80%.
